Laboratory results as given in patent publication US8975417B2, “Pyrazolopyrrolidine derivatives and their use in the treatment of disease” (Novartis AG, priority 2013, dated 2015).
Where two headings read alike, the source gives them in different places.

Assays:
His-Brd3(20-477) = His-Brd3(20-477) (Homo sapiens (Human), UniProt Q15059); assay: TR-FRET in-vitro binding assay for BRD3; conditions: biochemical
Experimental: (§1) TR-FRET In-Vitro Binding Assays for BRD2, BRD3, and BRD4:
(§2) All assays were performed in 384-well microtiter plates. Each assay plate contained 8-point serial dilutions for 40 test compounds, plus 16 high- and 16 low controls. Liquid handling and incubation steps were done on an Innovadyne Nanodrop Express equipped with a robotic arm (Thermo CatX, Perkin Elmer/Caliper Twister II) and an incubator (Liconic STX40, Thermo Cytomat 2C450). The assay plates were prepared by addition of 50 nl per well of compound solution in 90% DMSO HummingBird nanodispenser (Zinsser Analytic). The assay was started by stepwise addition of 4.5 μL per well of bromo domain protein (50 mM HEPES, pH 7.5, 0.005% Tween20, 0.1% BSA, 50 mM NaCl, 45 nM His-Brd2(60-472) or 45 nM His-Brd3(20-477) or 45 nM His-Brd4(44-477) all proteins produced in-house) and 4.5 μL per well of peptide solution (50 mM HEPES, pH 7.5, 0.005% Tween20, 0.1% BSA, 50 mM NaCl, 60 nM acetyl-histone H4 (AcK 5, 8, 12, 16) (Biosyntan GmbH)). Reactions were incubated at 30° C. for 35 minutes. Subsequently 4.5 μL per well detection mix (50 mM HEPES, pH 7.5, 0.005% Tween20, 0.1% BSA, 50 mM NaCl, 3 nM Eu-labeled anti-His6 antibody, 21 nM streptavidin-allophycocyanin) were added. After minutes incubation at 30° C., plates were measured in a Perkin Elmer EnVision multilabel reader.
(§3) Test compounds were dissolved in DMSO (10 mM) and transferred into 1.4 mL flat bottom or V-shaped Matrix tubes carrying a unique 2D matrix. The stock solutions were stored at […] if not used immediately. For the test procedure the vials were defrosted and identified by a scanner whereby a working sheet was generated that guided the subsequent working steps. Compound dilutions were made in 96 well plates. This format enabled the assay of maximally […] at 8 concentrations (single points) including 4 reference compounds, if desired (known BET inhibitors from the prior art, for this and other assays of the type disclosed herein). The dilution protocol included the production of “pre-dilution plates”, “master plates” and “assay plates”.
(§4) Polypropylene 96-well plates were used as pre-dilution plates. […] All dilution steps were done on a HamiltonSTAR robot.
(§5) 30 μL of individual compound dilutions including standard compound and controls of the 4 “pre-dilution plates” were transferred into a 384-well “master plate” including the following concentrations 10000, […], 1000, 300, 100, 30, 10 and 3 μM, respectively in 90% of DMSO.
(§6) Identical “assay plates” were then prepared by pipetting 50 nL each of compound dilutions of the “master plates” into 384-well “assay plates” by means of a HummingBird 384-channel dispenser. These plates were used directly for the assay which was performed in a total volume of 13.55 μL.

His-Brd2(60-472) = His-Brd2(60-472) (Homo sapiens (Human), UniProt P25440); assay: TR-FRET in-vitro binding assay for BRD2; conditions: biochemical
Sequence of His-Brd2(60-472) (P25440 60-472): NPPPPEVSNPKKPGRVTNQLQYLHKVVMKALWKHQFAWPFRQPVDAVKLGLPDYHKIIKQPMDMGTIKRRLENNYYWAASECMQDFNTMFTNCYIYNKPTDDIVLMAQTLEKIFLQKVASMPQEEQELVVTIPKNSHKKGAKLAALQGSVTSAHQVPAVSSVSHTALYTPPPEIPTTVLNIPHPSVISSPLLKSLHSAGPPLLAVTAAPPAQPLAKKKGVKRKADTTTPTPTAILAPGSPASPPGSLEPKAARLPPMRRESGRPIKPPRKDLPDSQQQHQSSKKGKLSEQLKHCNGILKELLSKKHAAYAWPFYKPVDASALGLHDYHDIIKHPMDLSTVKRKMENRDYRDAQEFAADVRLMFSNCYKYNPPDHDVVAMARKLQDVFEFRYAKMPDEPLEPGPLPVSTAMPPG
Experimental: as §1, §2, §3, §4, §5, §6

K-562 cells = assay: Cell growth inhibition assay (CellTiter-Glo), K-562; format: cell-based, human
Experimental: (§7) Cell Growth Inhibition Assay
(§8) The human leukemia cell lines MV-4-11, THP-1 and K-562 were employed to characterize the effect of BET inhibitors on cellular proliferation and viability. Cells were obtained from the American Type Culture Collection (ATCC) and cultured at 37° C. in a humidified 5% CO2 incubator in the following media: MV-4-11: DMEM high glucose (Animed #1-26F01-I), 10% FCS (Animed #2-01F26-I), 4 mM L-Glutamine (Animed #5-10K50), 1 mM Sodium Pyruvate (Animed # G03625P), 1× Penicillin-Streptomycin (Animed # F12478P); K-562: Iscove's MEM (Animed #1-28F16-I), 10% FCS (Animed #2-01F26-I), 4 mM L-Glutamine (Animed #5-10K50), 1× Penicillin-Streptomycin (Animed # F12478P); THP-1: RPMI-1640 (Animed #1-41F01-I), 10% FCS (Animed #2-01F26-I), 2 mM L-Glutamine (Animed #5-10K50), 10 mM HEPES (Animed #5-31F100), 1 mM Sodium Pyruvate (Animed # G03625P), 1× Penicillin-Streptomycin (Animed # F12478P). The AML lines MV-4-11 and THP-1 are very sensitive to BET inhibitors and show massive cell death upon BET inhibition (Zuber et al., Nature, 478 (2011), 524-8). Compound-mediated suppression of cell proliferation/viability was assessed by quantification of cellular ATP levels using the CellTiter-Glo (CTG) reagent (Promega). Briefly, cells were seeded in 20 μl fresh medium into 384-well plates, followed by addition of 5 μL medium containing compound dilutions at 5-fold their final intended concentration. Dose-response effects were assessed by 3-fold serial dilutions of the test compound, starting at 10 μM. Following incubation of the cells for days at 37° C. and 5% CO2, the effect of inhibitors on cell viability was quantified following addition of 20 μl CTG and luminescence quantification (integration time: 100 ms) as per vendor manual, using a correspondingly equipped Tecan M200 multi-mode platereader (TECAN, Switzerland). For data analysis, the assay background value determined in wells containing medium, but no cells, was subtracted from all data points. To enable differentiation of cytotoxic from cytostatic compounds, the number of viable cells is assessed relative to that observed at the time of compound addition using a separate cell plate (day 0). The effect of a particular test compound concentration on cell proliferation/viability is expressed as percentage of the background- and day 0-corrected luminescence reading obtained for cells treated with vehicle only (DMSO, 0.1% final concentration), which is set as 100%, whereas that luminescence reading for wells containing medium is set as −100%. Compound concentrations leading to half-maximal (IC50) and total growth inhibition (TGI) were determined using standard four parameter curve fitting.

[1] = molecular target: His-CREBBP (1081-1197) bromodomain (Homo sapiens (Human), UniProt Q92793); assay: AlphaScreen in-vitro binding assay for CREBBP; conditions: biochemical
Sequence of His-CREBBP (1081-1197) bromodomain (Q92793 1081-1197): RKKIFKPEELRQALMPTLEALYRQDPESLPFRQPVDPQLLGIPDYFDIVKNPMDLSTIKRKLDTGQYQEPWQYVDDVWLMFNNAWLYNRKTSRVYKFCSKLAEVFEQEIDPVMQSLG
Experimental: AlphaScreen In-Vitro Binding Assay for CREBBP
In order to assess bromodomain selectivity, we set up a binding assay using the bromodomain encoded by the CREBBP gene. […] Reactions were incubated at 30° C. for 35 minutes. Subsequently 4.5 μL per well detection mix (50 mM HEPES, pH 7.5, 0.005% Tween20, 0.02% BSA, 150 mM NaCl, 45 μg/ml Ni-chelate acceptor beads, 45 μg/mL streptavidin-donor beads) (Perkin Elmer)) were added. After 60 minutes incubation at room temperature, plates were measured in a Perkin Elmer EnVision multilabel reader. IC50 values were determined from percent inhibition values at different compound concentrations by non-linear regression analysis.
as §3, §4
These plates were used directly for the assay which was performed in a total volume of 13.55 μL.

His-Brd4(44-477) = His-Brd4(44-477) (Homo sapiens (Human), UniProt O60885); assay: TR-FRET in-vitro binding assay for BRD4; conditions: biochemical
Experimental: as §1, §2, §3, §4, §5, §6

MV-4-11 cells = assay: Cell growth inhibition assay (CellTiter-Glo), MV-4-11; format: cell-based; conditions: Homo sapiens, MV4-11, read-out: MV-4-11 TGI
Experimental: as §7, §8

THP-1 cells = assay: Cell growth inhibition assay (CellTiter-Glo), THP-1; format: cell-based; conditions: Homo sapiens, read-out: THP-1 TGI
Experimental: as §7, §8

[2] = Homo sapiens, K562, read-out: K-562 TGI

Sequence of His-Brd3(20-477) (Q15059 20-477): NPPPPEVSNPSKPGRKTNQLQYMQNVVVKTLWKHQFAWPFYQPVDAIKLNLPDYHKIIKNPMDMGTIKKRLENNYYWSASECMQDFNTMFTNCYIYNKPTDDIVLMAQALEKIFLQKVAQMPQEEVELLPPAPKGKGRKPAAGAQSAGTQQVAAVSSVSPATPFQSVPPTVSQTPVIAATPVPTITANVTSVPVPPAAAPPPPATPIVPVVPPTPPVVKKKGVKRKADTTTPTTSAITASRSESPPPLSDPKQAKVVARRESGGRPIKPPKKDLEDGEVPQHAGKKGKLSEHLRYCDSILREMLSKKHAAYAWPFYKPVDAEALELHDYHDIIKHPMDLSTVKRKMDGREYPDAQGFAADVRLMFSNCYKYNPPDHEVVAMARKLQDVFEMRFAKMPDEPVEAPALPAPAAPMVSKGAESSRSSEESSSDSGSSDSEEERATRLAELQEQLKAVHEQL

Structure (SMILES) | IC50 (His-Brd3(20-477)) | IC50 (His-Brd2(60-472)) | IC50 [1] | IC50 (His-Brd4(44-477)) | IC (total growth inhibition) (K-562 cells; read-out: K-562 TGI) | IC (total growth inhibition) (MV-4-11 cells) | IC (total growth inhibition) (K-562 cells; [2]) | IC (total growth inhibition) (THP-1 cells)
CNc1cc(N2C(=O)c3c(c(C)nn3C3CC3)C2c2ccc(Cl)cc2)nn2c(C)nnc12 (racemic) [Example 113, 4-(4-chlorophenyl)-1-cyclopropyl-3-methyl-5-(3-methyl-8-(methylamino)-[1,2,4]triazolo[4,3-b]pyridazin-6-yl)-4,5-dihydropyrrolo[3,4-c]pyrazol-6(1H)-one] | 120 nM | 86 nM | > 37000 nM | 67 nM | >10 µM | – | – | –
Cc1nn(C2CC2)c2c1[C@H](c1ccc(Cl)cc1)N(c1cc(C)c3nnc(C)n3c1)C2=O [Example 118, (S)-4-(4-chlorophenyl)-1-cyclopropyl-5-(3,8-dimethyl-[1,2,4]triazolo[4,3-a]pyridin-6-yl)-3-methyl-4,5-dihydropyrrolo[3,4-c]pyrazol-6(1H)-one] | – | – | – | – | – | 3.35 µM | > 10 µM | > 10 µM
Cc1cc(N2C(=O)c3nn(C(C)C)c(C)c3C2c2ccc(Cl)cc2F)cn2c(C)nnc12 (stereo not shown) [Example 169, 4-(4-chloro-2-fluorophenyl)-5-(3,8-dimethyl-[1,2,4]triazolo[4,3-a]pyridin-6-yl)-2-isopropyl-3-methyl-4,5-dihydropyrrolo[3,4-c]pyrazol-6(2H)-one] | – | – | – | – | – | 0.0576 µM | > 10 µM | 0.121 µM
CCn1nc(C)c2c1C(=O)N(c1cc(C)c3nnc(C)n3c1)[C@@H]2c1ccc(F)cc1F [Example 191, (S)-4-(2,4-difluorophenyl)-5-(3,8-dimethyl-[1,2,4]triazolo[4,3-a]pyridin-6-yl)-1-ethyl-3-methyl-4,5-dihydropyrrolo[3,4-c]pyrazol-6(1H)-one] | 31 nM | 69 nM | 10000 nM | 25 nM | – | – | – | –
CCn1nc(C)c2c1C(=O)N(c1cc(C)c3nnc(C)n3c1)[C@@H]2c1ccc(Cl)cc1F [Example 192, (S)-4-(4-chloro-2-fluorophenyl)-5-(3,8-dimethyl-[1,2,4]triazolo[4,3-a]pyridin-6-yl)-1-ethyl-3-methyl-4,5-dihydropyrrolo[3,4-c]pyrazol-6(1H)-one] | 44 nM | 53 nM | 7100 nM | 39 nM | – | – | – | –
COc1ncccc1-n1nc2c(c1C)C(c1ccc(F)cc1F)N(c1cc(C)c3nnc(C)n3c1)C2=O (stereo not shown) [Example 193, 4-(2,4-difluorophenyl)-5-(3,8-dimethyl-[1,2,4]triazolo[4,3-a]pyridin-6-yl)-2-(2-methoxypyridin-3-yl)-3-methyl-4,5-dihydropyrrolo[3,4-c]pyrazol-6(2H)-one] | – | – | – | – | – | 0.0985 µM | > 10 µM | 0.141 µM
Cc1[nH]nc2c1C(c1ccc(Cl)cc1F)N(c1cc(C)c(=O)n(C)c1)C2=O (stereo not shown) [Example 196, 4-(4-chloro-2-fluorophenyl)-5-(1,5-dimethyl-6-oxo-1,6-dihydropyridin-3-yl)-3-methyl-4,5-dihydropyrrolo[3,4-c]pyrazol-6(2H)-one] | – | – | – | – | – | 0.266 µM | > 10 µM | 0.53 µM

Continued, in another order:

IC50 (His-Brd3(20-477)) | IC50 (His-Brd2(60-472)) | IC50 [1] | IC50 (His-Brd4(44-477)) | Structure (SMILES) | IC (total growth inhibition) (K-562 cells; read-out: K-562 TGI) | IC (total growth inhibition) (MV-4-11 cells) | IC (total growth inhibition) (K-562 cells; [2]) | IC (total growth inhibition) (THP-1 cells)
67 nM | 100 nM | – | 72 nM | Cc1c2c(nn1C)C(=O)N(c1cc(Cl)c(=O)n(C)c1)[C@@H]2c1ccc(Cl)cc1 [Example 7, (R)-5-(5-chloro-1-methyl-6-oxo-1,6-dihydropyridin-3-yl)-4-(4-chlorophenyl)-2,3-dimethyl-4,5-dihydropyrrolo[3,4-c]pyrazol-6(2H)-one] | – | 0.107 µM | > 10 µM | 0.191 µM
66 nM | 100 nM | – | 81 nM | Cc1cc(N2C(=O)c3nn(C)cc3[C@H]2c2ccc(Cl)cc2)cn(C)c1=O [Example 16, (R)-4-(4-chlorophenyl)-5-(1,5-dimethyl-6-oxo-1,6-dihydropyridin-3-yl)-2-methyl-4,5-dihydropyrrolo[3,4-c]pyrazol-6(2H)-one] | – | 0.116 µM | > 10 µM | 0.207 µM
27000 nM | 30000 nM | – | 23000 nM | Cc1c2c(nn1C1CC1)C(=O)N(c1cc(Cl)c(=O)n(C)c1)[C@H]2c1ccc(Cl)cc1 [Example 18, (S)-5-(5-chloro-1-methyl-6-oxo-1,6-dihydropyridin-3-yl)-4-(4-chlorophenyl)-2-cyclopropyl-3-methyl-4,5-dihydropyrrolo[3,4-c]pyrazol-6(2H)-one] | – | 4.04 µM | > 10 µM | > 10 µM
43 nM | 48 nM | – | 47 nM | Cc1cc(N2C(=O)c3nn(C4CC4)c(C)c3[C@H]2c2ccc(Cl)cc2)cn(C)c1=O [Example 21] | – | 0.0378 µM | > 10 µM | 0.0687 µM
